# Reference: patent US20250136606A1, “MODULATORS OF TRPML, THEIR COMPOSITIONS AND METHODS OF USE” (Caraway Therapeutics, Inc., priority 2021, published 2025)
# Read-outs that look alike come from different tables or passages of the source.
# Columns and labels:
# Assay type in all cases: cell-based
# TRPML3 = molecular target: T1, TRPML3 (Homo sapiens, UniProt Q8TDD5); assay: Fluorescent TRPML3 assay (performed as for TRPML1, substituting the TRPML3 subtype)
# T1 construct: expressed in transfected cells
# T1 sequence (Q8TDD5 1-553): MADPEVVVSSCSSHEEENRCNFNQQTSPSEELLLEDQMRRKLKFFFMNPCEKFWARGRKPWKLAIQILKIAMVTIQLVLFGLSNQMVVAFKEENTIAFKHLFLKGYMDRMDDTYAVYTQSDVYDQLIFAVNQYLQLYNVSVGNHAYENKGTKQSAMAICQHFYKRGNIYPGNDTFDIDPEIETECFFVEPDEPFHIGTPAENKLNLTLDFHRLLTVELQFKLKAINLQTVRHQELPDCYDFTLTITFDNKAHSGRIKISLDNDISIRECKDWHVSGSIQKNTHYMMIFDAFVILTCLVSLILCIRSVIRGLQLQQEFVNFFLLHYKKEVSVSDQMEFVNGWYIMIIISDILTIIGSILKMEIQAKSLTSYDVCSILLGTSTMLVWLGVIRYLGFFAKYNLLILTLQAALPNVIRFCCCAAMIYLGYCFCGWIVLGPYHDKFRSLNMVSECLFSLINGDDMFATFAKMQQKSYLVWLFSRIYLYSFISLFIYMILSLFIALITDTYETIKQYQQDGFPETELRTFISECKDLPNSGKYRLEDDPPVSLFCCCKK
# How it was run: (§1)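 HEK-293 Trex, dox-induced (0.5 ug/mL), mutated for surface expression. Fluo4-AM 1 micromolar load ~60 min, dark; buffer modified Ringer's, 10 mM Ca. Cpds 20 micromolar–6 nanomolar final, half-log, n=3. Read ex 480/em 540; % activity vs controls; EC50 nonlinear fit.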
# TRPML1 = TRPML1 (Homo sapiens, UniProt Q9GZU1); assay: Fluorescent TRPML1 assay (Fluo4-AM calcium fluorescence in doxycycline-induced HEK-293 Trex cells)
# Sequence of TRPML1 (Q9GZU1 whole entry L15A/L16A/L577A/L578A, form open): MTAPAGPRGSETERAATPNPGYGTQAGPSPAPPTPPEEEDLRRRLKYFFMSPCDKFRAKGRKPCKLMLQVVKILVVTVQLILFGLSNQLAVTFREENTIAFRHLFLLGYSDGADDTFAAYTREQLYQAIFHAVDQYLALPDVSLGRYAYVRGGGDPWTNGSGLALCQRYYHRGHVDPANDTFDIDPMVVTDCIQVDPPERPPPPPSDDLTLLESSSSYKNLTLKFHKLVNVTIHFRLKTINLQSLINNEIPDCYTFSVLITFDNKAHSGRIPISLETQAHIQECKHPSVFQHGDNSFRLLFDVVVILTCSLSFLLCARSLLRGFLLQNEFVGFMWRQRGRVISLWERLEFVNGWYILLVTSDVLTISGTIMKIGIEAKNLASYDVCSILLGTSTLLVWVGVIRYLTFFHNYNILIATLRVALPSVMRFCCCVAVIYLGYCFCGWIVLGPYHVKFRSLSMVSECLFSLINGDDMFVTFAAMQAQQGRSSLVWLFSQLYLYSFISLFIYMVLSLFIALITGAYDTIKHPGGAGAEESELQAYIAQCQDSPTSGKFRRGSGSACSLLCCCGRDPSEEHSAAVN
# How it was run: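 hTRPML1 (mutated for cell-surface expression) in HEK-293 Trex, dox 0.5 ug/mL o/n; Fluo4-AM 1 uM ~60 min, then ~60 min de-esterification, dark; modified Ringer's + 10 mM Ca. Cmpds 20 uM–6 nM final, half-log, n=3. Ex480/Em540; % activity vs ctrls; EC50 by nonlinear regression.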
# TRPML2 = molecular target: T2, TRPML2 (Homo sapiens, UniProt Q8IZK6); assay: Fluorescent TRPML2 assay (performed as for TRPML1, substituting the TRPML2 subtype)
# T2 construct: expressed in transfected cells
# T2 sequence (Q8IZK6 1-566): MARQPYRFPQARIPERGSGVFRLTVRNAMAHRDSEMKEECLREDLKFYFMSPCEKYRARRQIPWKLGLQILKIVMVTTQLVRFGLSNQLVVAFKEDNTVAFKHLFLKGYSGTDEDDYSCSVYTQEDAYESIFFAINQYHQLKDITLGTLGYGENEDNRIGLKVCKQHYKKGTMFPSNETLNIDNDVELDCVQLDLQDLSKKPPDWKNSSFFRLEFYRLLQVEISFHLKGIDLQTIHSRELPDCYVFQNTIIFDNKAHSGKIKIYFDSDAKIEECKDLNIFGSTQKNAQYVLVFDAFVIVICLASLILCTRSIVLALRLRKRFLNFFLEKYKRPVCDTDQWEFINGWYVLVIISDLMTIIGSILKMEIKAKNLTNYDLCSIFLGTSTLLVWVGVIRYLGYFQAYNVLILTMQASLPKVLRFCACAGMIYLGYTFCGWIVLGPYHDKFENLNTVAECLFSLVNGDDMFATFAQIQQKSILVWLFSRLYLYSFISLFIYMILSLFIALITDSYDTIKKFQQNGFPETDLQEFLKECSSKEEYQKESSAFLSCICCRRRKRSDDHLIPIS
# How it was run: as §1
Structure (SMILES),EC50 (TRPML3; fluorescent calcium assay),EC50 (TRPML1; fluorescent calcium assay),EC50 (TRPML2; fluorescent calcium assay),EC50 (TRPML3),EC50 (TRPML1),EC50 (TRPML2)
"C[C@H]1CN(C(=O)OC(C)(C)C)CCN1c1ncnc2c1c(N1CCCC1)cn2[C@@H]1C[C@@H]2CC[C@H]1C2 [Compound 406, tert-butyl-(S)-4-(7-((1S,2R,4R)-bicyclo[2.2.1]heptan-2-yl)-5-(pyrrolidin-1-yl)-7H-pyrrolo[2,3-d]pyrimidin-4-yl)-3-methylpiperazine-1-carboxylate]",500 to 2000 nM,100 to 500 nM,500 to 2000 nM,,,
"CC[C@H]1CN(c2ncnc3c2c(C2CC2)cn3-c2cc(F)cc(F)c2)CCN1C(=O)OC(C)(C)C [Compound 257, tert-Butyl (S)-4-(5-cyclopropyl-7-(3,5-difluorophenyl)-7H-pyrrolo[2,3-d]pyrimidin-4-yl)-2-ethylpiperazine-1-carboxylate]",100 to 500 nM,100 to 500 nM,500 to 2000 nM,,,
"C[C@@H]1CN(c2ncnc3c2c(C(F)(F)F)cn3C2CCCC(C#N)C2)[C@@H](C)CN1C(=O)OC(C)(C)C (stereo partly drawn) [Compound 629, tert-butyl (2R,5S)-4-(7-(3-cyanocyclohexyl)-5-(trifluoromethyl)-7H-pyrrolo[2,3-d]pyrimidin-4-yl)-2,5-dimethylpiperazine-1-carboxylate]",,,,100 to 500 nM,500 to 2000 nM,> 2000 nM
"C[C@H]1CN(C(=O)OC(C)(C)C)CCN1c1ncnc2c1c(N(C)C1CC1)cn2-c1cccc(Cl)c1 [Compound 522, tert-butyl (S)-4-(7-(3-chlorophenyl)-5-(cyclopropyl(methyl)amino)-7H-pyrrolo[2,3-d]pyrimidin-4-yl)-3-methylpiperazine-1-carboxylate]",,,,< 100 nM,100 to 500 nM,100 to 500 nM
"C[C@@H]1CN(c2ncnc3c2c(C2CC2)cn3-c2cc(C#N)ccn2)CCN1C(=O)OCC(F)(F)F [Compound 377, 2,2,2-trifluoroethyl (R)-4-(7-(4-cyanopyridin-2-yl)-5-cyclopropyl-7H-pyrrolo[2,3-d]pyrimidin-4-yl)-2-methylpiperazine-1-carboxylate]",< 100 nM,< 100 nM,100 to 500 nM,,,
"C[C@H]1CN(C(=O)OC(C)(C)C)CCN1c1ncnc2c1c(C1CC1)cn2[C@H]1CCC[C@@H](C#N)C1 [Compound 527, tert-butyl (S)-4-(7-(cis-3-cyanocyclohexyl)-5-cyclopropyl-7H-pyrrolo[2,3-d]pyrimidin-4-yl)-3-methylpiperazine-1-carboxylate]",,,,500 to 2000 nM,500 to 2000 nM,> 2000 nM
"C[C@@H]1CN(c2ncnc3c2c(N2CCC2)cn3-c2cccc(C#N)c2)CCN1C(=O)OC(C)(C)C [Compound 341, tert-butyl (R)-4-(5-(azetidin-1-yl)-7-(3-cyanophenyl)-7H-pyrrolo[2,3-d]pyrimidin-4-yl)-2-methylpiperazine-1-carboxylate]",< 100 nM,< 100 nM,< 100 nM,,,
"C[C@H]1CN(c2ncnc3c2c(C2CC2)cn3-c2cc(F)cc(F)c2)CCN1C(=O)OC(C)(C)C [Compound 188, tert-Butyl (S)-4-(5-cyclopropyl-7-(3,5-difluorophenyl)-7H-pyrrolo[2,3-d]pyrimidin-4-yl)-2-methylpiperazine-1-carboxylate]",100 to 500 nM,100 to 500 nM,500 to 2000 nM,,,
"C[C@@H]1CN(c2ncnc3c2c(C(F)F)cn3C2CCCCC2)[C@@H](C)CN1C(=O)OC(C)(C)C [Compound 627, tert-butyl (2R,5S)-4-(7-cyclohexyl-5-(difluoromethyl)-7H-pyrrolo[2,3-d]pyrimidin-4-yl)-2,5-dimethylpiperazine-1-carboxylate]",,,,100 to 500 nM,100 to 500 nM,> 2000 nM

# Continued, values first:
EC50 (TRPML3; fluorescent calcium assay),EC50 (TRPML1; fluorescent calcium assay),EC50 (TRPML2; fluorescent calcium assay),EC50 (TRPML3),EC50 (TRPML1),EC50 (TRPML2),Structure (SMILES)
,,,< 100 nM,< 100 nM,< 100 nM,"C[C@H]1CN(C(=O)OC(C)(C)C)CCN1c1ncnc2c1c(C(F)F)cn2-c1cc(C#N)ccn1 [Compound 514, tert-butyl (S)-4-(7-(4-cyanopyridin-2-yl)-5-(difluoromethyl)-7H-pyrrolo[2,3-d]pyrimidin-4-yl)-3-methylpiperazine-1-carboxylate]"
< 100 nM,< 100 nM,100 to 500 nM,,,,"CC(C)(C)OC(=O)N1CCN(c2ncnc3c2c(C2CC2)cn3-c2cc(C#N)ccn2)[C@H]2C[C@H]21 (single isomer, unassigned) [Compound 409]"
500 to 2000 nM,100 to 500 nM,> 2000 nM,,,,"CCOC(=O)N1C[C@H](C)N(c2ncnc3c2c(-c2ccccn2)cn3-c2cccc(Cl)c2)C[C@H]1C [Compound 118, Ethyl (2R,5S)-4-(7-(3-chlorophenyl)-5-(pyridin-2-yl)-7H-pyrrolo[2,3-d]pyrimidin-4-yl)-2,5-dimethylpiperazine-1-carboxylate]"
100 to 500 nM,100 to 500 nM,> 2000 nM,,,,"C[C@H]1CN(C(=O)OC(C)(C)C)CCN1c1ncnc2c1c(-c1ccccc1F)cn2-c1ccnnc1 [Compound 451, tert-butyl (S)-4-(5-(2-fluorophenyl)-7-(pyridazin-4-yl)-7H-pyrrolo[2,3-d]pyrimidin-4-yl)-3-methylpiperazine-1-carboxylate]"
< 100 nM,< 100 nM,< 100 nM,,,,C[C@@H]1CN(c2ncnc3c2c(-c2ccccc2F)cn3-c2cc(C#N)ccn2)[C@@H](C)CN1C(=O)OC(C)(C)C [Compound 390]
< 100 nM,< 100 nM,500 to 2000 nM,,,,"C[C@@H]1CN(c2ncnc3c2c(-c2ccccc2)cn3-c2cccnc2)[C@@H](C)CN1C(=O)OC(C)(C)C [Compound 169, tert-butyl (2R,5S)-2,5-dimethyl-4-(5-phenyl-7-(pyridin-3-yl)-7H-pyrrolo[2,3-d]pyrimidin-4-yl)piperazine-1-carboxylate]"
100 to 500 nM,100 to 500 nM,> 2000 nM,,,,"CCN(CC)c1cn(-c2cc(C#N)ccn2)c2ncnc(N3CCN(C(=O)OC(C)(C)C)CC3)c12 [Compound 441, tert-butyl 4-(7-(4-cyanopyridin-2-yl)-5-(diethylamino)-7H-pyrrolo[2,3-d]pyrimidin-4-yl)piperazine-1-carboxylate]"
< 100 nM,< 100 nM,< 100 nM,,,,"C[C@@H]1CN(c2ncnc3c2c(-c2ccccc2F)cn3-c2cc(C#N)ccn2)CCN1C(=O)OCC(F)(F)F [Compound 378, 2,2,2-trifluoroethyl (R)-4-(7-(4-cyanopyridin-2-yl)-5-(2-fluorophenyl)-7H-pyrrolo[2,3-d]pyrimidin-4-yl)-2-methylpiperazine-1-carboxylate]"
,,,< 100 nM,< 100 nM,500 to 2000 nM,"Cc1cn(-c2cccc(C#N)c2)c2ncnc(N3C[C@@H](C)N(C(=O)OC(C)(C)C)C[C@@H]3C)c12 [Compound 669, tert-butyl (2R,5S)-4-(7-(3-cyanophenyl)-5-methyl-7H-pyrrolo[2,3-d]pyrimidin-4-yl)-2,5-dimethylpiperazine-1-carboxylate]"
,,,< 100 nM,< 100 nM,< 100 nM,"Cc1cn(-c2cc(C(F)(F)F)ccn2)c2ncnc(N3CCN(C(=O)OC(C)(C)C)[C@H](C)C3)c12 [Compound 679, tert-butyl (R)-2-methyl-4-(5-methyl-7-(4-(trifluoromethyl)pyridin-2-yl)-7H-pyrrolo[2,3-d]pyrimidin-4-yl)piperazine-1-carboxylatee]"
